Species: Rattus norvegicus
Assay: Open TG-GATES - Regimen: Daily Repeat
Format: toxicity, organism-based, Sprague-Dawley
Design: regimen Daily Repeat, gender Male, age 6 weeks
Settings: in vivo, po, 500 mg/kg, route gavage, dose level High; for APTT / Bas / Eos / Fbg / Hb / Ht / Lym / MCH / MCHC / MCV / Mono / Neu / PT / Plat / RBC / Ret / WBC: tissue Blood
[1] = 72 h, tissue Kidney, time 3 day
[2] = 72 h, tissue Plasma, time 3 day

CN1C(=O)OC(C)(C)C1=O [TRIMETHADIONE]
TERMINAL_BW (72 h, time 3 day): 231.2 g | APTT (72 h, time 3 day): 19.5 s | Bas (72 h, time 3 day): 0.2% | Eos (72 h, time 3 day): 0.6% | Fbg (72 h, time 3 day): 280 mg/dL | Hb (72 h, time 3 day): 13.7 g/dL | Ht (72 h, time 3 day): 40.3% | Lym (72 h, time 3 day): 80% | MCH (72 h, time 3 day): 21.4 pg | MCHC (72 h, time 3 day): 34% | MCV (72 h, time 3 day): 63 fL | Mono (72 h, time 3 day): 3.2% | Neu (72 h, time 3 day): 15.6% | PT (72 h, time 3 day): 13.3 s | Plat (72 h, time 3 day): 127.8 x10_4/uL | RBC (72 h, time 3 day): 640 x10_4/ul | Ret (72 h, time 3 day): 5.1% | WBC (72 h, time 3 day): 107.7 x10_2/uL | KIDNEY_L [1]: 1.1 g | KIDNEY_R [1]: 1 g | KIDNEY_TOTAL [1]: 2.1 g | LIVER (72 h, tissue Liver, time 3 day): 13.3 g | A/G [2]: 0.8 | ALP [2]: 1686.2 IU/L | ALT [2]: 57.2 IU/L | AST [2]: 106.6 IU/L | BUN [2]: 16 mg/dL | CRE [2]: 0.2 mg/dL | Ca [2]: 11.2 mg/dL | Cl [2]: 99.4 meq/L | DBIL [2]: 0.006 mg/dL | GLC [2]: 169.4 mg/dL | IP [2]: 7.7 mg/dL | K [2]: 4.5 meq/L | LDH [2]: 114.8 IU/L | Na [2]: 143 meq/L | PL [2]: 160 mg/dL | RALB [2]: 2.7 g/dL | TBIL [2]: 0.04 mg/dL | TC [2]: 88.4 mg/dL | TG [2]: 70.6 mg/dL | TP [2]: 5.8 g/dL | gamma-GTP [2]: 1 IU/L | TERMINAL_BW ([…], time 7 day): 268.1 g | TERMINAL_BW ([…], time 14 day): 306.3 g | TERMINAL_BW ([…], time 28 day): 346.7 g | APTT ([…], time 7 day): 15.5 s | Bas ([…], time 7 day): 0.6% | Eos ([…], time 7 day): 0.8% | Fbg ([…], time 7 day): 272.6 mg/dL | Hb ([…], time 7 day): 13.4 g/dL | Ht ([…], time 7 day): 39% | Lym ([…], time 7 day): 70.4% | MCH ([…], time 7 day): 21.2 pg | MCHC ([…], time 7 day): 34.4% | MCV ([…], time 7 day): 61.8 fL | Mono ([…], time 7 day): 4.2% | Neu ([…], time 7 day): 24% | PT ([…], time 7 day): 14.8 s | Plat ([…], time 7 day): 109.8 x10_4/uL | RBC ([…], time 7 day): 630.8 x10_4/ul | Ret ([…], time 7 day): 4.4% | WBC ([…], time 7 day): 138.4 x10_2/uL | APTT ([…], time 14 day): 33.5 s | Bas ([…], time 14 day): 0.2% | Eos ([…], time 14 day): 0.4% | Fbg ([…], time 14 day): 282.6 mg/dL | Hb ([…], time 14 day): 14 g/dL | Ht ([…], time 14 day): 40.3% | Lym ([…], time 14 day): 77.2% | MCH ([…], time 14 day): 21.1 pg | MCHC ([…], time 14 day): 34.8% | MCV ([…], time 14 day): 60.7 fL | Mono ([…], time 14 day): 4.2% | Neu ([…], time 14 day): 17% | PT ([…], time 14 day): 14 s | Plat ([…], time 14 day): 116.4 x10_4/uL | RBC ([…], time 14 day): 664 x10_4/ul | Ret ([…], time 14 day): 4.5% | WBC ([…], time 14 day): 86.5 x10_2/uL | APTT ([…], time 28 day): 19.2 s | Bas ([…], time 28 day): 0.2% | Eos ([…], time 28 day): 0.8% | Fbg ([…], time 28 day): 288.6 mg/dL | Hb ([…], time 28 day): 15.4 g/dL | Ht ([…], time 28 day): 43.1%

Reference: ChEMBL document CHEMBL3885861, “Open TG-GATES”
